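Here, GI50 denotes the concentration required for 50% inhibition of growth. TGI: total growth inhibition.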
Tests used:
Assay in all cases: growth of human tumour cells (NCI), 384-well format
MOLT-4 leukemia = system: MOLT-4 leukemia
HCC-2998 colon = system: HCC-2998 colon
BT-549 breast = system: BT-549 breast
MALME-3M melanoma = system: MALME-3M melanoma
MCF7 breast = system: MCF7 breast
RXF 393 renal = system: RXF 393 renal
NCI-H322M lung = system: NCI-H322M lung
UO-31 renal = system: UO-31 renal
SW-620 colon = system: SW-620 colon
EKVX NSCLC = system: EKVX NSCLC
ACHN renal = system: ACHN renal
RPMI-8226 leukemia = system: RPMI-8226 leukemia
NCI-H23 lung = system: NCI-H23 lung
KM12 colon = system: KM12 colon
HT29 colon = system: HT29 colon
UACC-257 melanoma = system: UACC-257 melanoma
HOP-62 NSCLC = system: HOP-62 NSCLC
SK-OV-3 ovarian = system: SK-OV-3 ovarian
HOP-92 NSCLC = system: HOP-92 NSCLC
NCI-H460 NSCLC = system: NCI-H460 NSCLC
SN12C renal = system: SN12C renal
U251 glioblastoma = system: U251 glioblastoma
DU-145 prostate = system: DU-145 prostate
HCT-116 colon = system: HCT-116 colon
OVCAR-8 ovarian = system: OVCAR-8 ovarian
SR leukemia = system: SR leukemia
SF-539 CNS = system: SF-539 CNS
OVCAR-5 ovarian = system: OVCAR-5 ovarian
CAKI-1 renal = system: CAKI-1 renal
786-0 renal = system: 786-0 renal
A498 renal = system: A498 renal
SF-295 CNS = system: SF-295 CNS
SK-MEL-28 melanoma = system: SK-MEL-28 melanoma
PC-3 prostate = system: PC-3 prostate
LOX IMVI melanoma = system: LOX IMVI melanoma
NCI-H522 lung = system: NCI-H522 lung
HCT-15 colon = system: HCT-15 colon
IGROV1 ovarian = system: IGROV1 ovarian
NCI/ADR-RES ovarian = system: NCI/ADR-RES ovarian
MDA-MB-435 melanoma = system: MDA-MB-435 melanoma
TK-10 renal = system: TK-10 renal
MDA-MB-231 breast = system: MDA-MB-231 breast
COLO 205 colon = system: COLO 205 colon
T-47D breast = system: T-47D breast
A549 NSCLC = system: A549 NSCLC
NCI-H226 lung = system: NCI-H226 lung
OVCAR-4 ovarian = system: OVCAR-4 ovarian
MDA-MB-468 breast = system: MDA-MB-468 breast
SNB-19 CNS = system: SNB-19 CNS
HS 578T breast = system: HS 578T breast

For `CNC(=O)c1ccccc1Sc1ccc2c(/C=C/c3ccccn3)n[nH]c2c1`, which GI50 (MOLT-4 leukemia) is on record?
The GI50 was 175 nM.

And the TGI (MOLT-4 leukemia)?
The TGI was 328 nM.

What about the GI50 (HCC-2998 colon) of the same molecule?
The GI50 was > 100 µM.

And the TGI (HCC-2998 colon)?
The TGI was > 100 µM.

What about the GI50 (BT-549 breast) of the same molecule?
Its GI50 is 1220 nM.

What about the TGI (BT-549 breast) of the same molecule?
The TGI was 6.94 µM.

And the GI50 (MALME-3M melanoma)?
The GI50 was 13.6 µM.

What about the TGI (MALME-3M melanoma) of the same molecule?
Its TGI is 85.9 µM.

And the GI50 (MCF7 breast)?
Its GI50 is 16.2 µM.

What about the TGI (MCF7 breast) of the same molecule?
Its TGI is > 100 µM.

What about the GI50 (RXF 393 renal) of the same molecule?
The GI50 was 4.61 µM.

What about the TGI (RXF 393 renal) of the same molecule?
Its TGI is 31.1 µM.

What about the GI50 (NCI-H322M lung) of the same molecule?
Its GI50 is 20.7 µM.

What about the TGI (NCI-H322M lung) of the same molecule?
Its TGI is 73.7 µM.

What about the GI50 (UO-31 renal) of the same molecule?
The GI50 was 32.8 µM.

What about the TGI (UO-31 renal) of the same molecule?
The TGI was > 100 µM.

And the GI50 (SW-620 colon)?
Its GI50 is 46.7 µM.

And the TGI (SW-620 colon)?
Its TGI is > 100 µM.

What about the GI50 (EKVX NSCLC) of the same molecule?
Its GI50 is 29.9 µM.

What about the TGI (EKVX NSCLC) of the same molecule?
Its TGI is > 100 µM.

And the GI50 (ACHN renal)?
Its GI50 is 13.8 µM.

And the TGI (ACHN renal)?
The TGI was > 100 µM.

And the GI50 (RPMI-8226 leukemia)?
Its GI50 is 3.77 µM.

And the TGI (RPMI-8226 leukemia)?
Its TGI is 13.9 µM.

What about the GI50 (NCI-H23 lung) of the same molecule?
Its GI50 is 15.5 µM.

And the TGI (NCI-H23 lung)?
Its TGI is > 100 µM.

And the GI50 (KM12 colon)?
Its GI50 is 1110 nM.

And the TGI (KM12 colon)?
Its TGI is > 100 µM.

What about the GI50 (HT29 colon) of the same molecule?
The GI50 was 46.5 µM.

And the TGI (HT29 colon)?
Its TGI is > 100 µM.

What about the GI50 (UACC-257 melanoma) of the same molecule?
Its GI50 is 26.7 µM.

And the TGI (UACC-257 melanoma)?
Its TGI is 92.2 µM.

And the GI50 (HOP-62 NSCLC)?
The GI50 was 4.4 µM.

What about the TGI (HOP-62 NSCLC) of the same molecule?
The TGI was > 100 µM.

And the GI50 (SK-OV-3 ovarian)?
The GI50 was 65.7 µM.

What about the TGI (SK-OV-3 ovarian) of the same molecule?
The TGI was > 100 µM.

And the GI50 (HOP-92 NSCLC)?
Its GI50 is 20.3 µM.

What about the TGI (HOP-92 NSCLC) of the same molecule?
Its TGI is > 100 µM.

What about the GI50 (NCI-H460 NSCLC) of the same molecule?
The GI50 was 2590 nM.

What about the TGI (NCI-H460 NSCLC) of the same molecule?
The TGI was 45 µM.

And the GI50 (SN12C renal)?
The GI50 was 4.88 µM.

And the TGI (SN12C renal)?
Its TGI is 79.7 µM.

And the GI50 (U251 glioblastoma)?
Its GI50 is 19.1 µM.

And the TGI (U251 glioblastoma)?
The TGI was > 100 µM.

And the GI50 (DU-145 prostate)?
The GI50 was 30.1 µM.

What about the TGI (DU-145 prostate) of the same molecule?
Its TGI is > 100 µM.

What about the GI50 (HCT-116 colon) of the same molecule?
The GI50 was 4.39 µM.

What about the TGI (HCT-116 colon) of the same molecule?
The TGI was > 100 µM.

And the GI50 (OVCAR-8 ovarian)?
The GI50 was 14.3 µM.

What about the TGI (OVCAR-8 ovarian) of the same molecule?
Its TGI is 42.5 µM.

What about the GI50 (SR leukemia) of the same molecule?
Its GI50 is 356 nM.

And the TGI (SR leukemia)?
The TGI was 539 nM.

And the GI50 (SF-539 CNS)?
Its GI50 is 1010 nM.

What about the TGI (SF-539 CNS) of the same molecule?
Its TGI is 7.16 µM.

What about the GI50 (OVCAR-5 ovarian) of the same molecule?
The GI50 was > 100 µM.

What about the TGI (OVCAR-5 ovarian) of the same molecule?
Its TGI is > 100 µM.

What about the GI50 (CAKI-1 renal) of the same molecule?
Its GI50 is 22 µM.

What about the TGI (CAKI-1 renal) of the same molecule?
The TGI was > 100 µM.

And the GI50 (786-0 renal)?
Its GI50 is 42.1 µM.

And the TGI (786-0 renal)?
The TGI was > 100 µM.

What about the GI50 (A498 renal) of the same molecule?
The GI50 was 35.4 µM.

And the TGI (A498 renal)?
Its TGI is > 100 µM.

And the GI50 (SF-295 CNS)?
The GI50 was 3.59 µM.

And the TGI (SF-295 CNS)?
The TGI was 69 µM.

What about the GI50 (SK-MEL-28 melanoma) of the same molecule?
The GI50 was 22.4 µM.

And the TGI (SK-MEL-28 melanoma)?
Its TGI is > 100 µM.

And the GI50 (PC-3 prostate)?
Its GI50 is 20.2 µM.

And the TGI (PC-3 prostate)?
Its TGI is > 100 µM.

What about the GI50 (LOX IMVI melanoma) of the same molecule?
Its GI50 is 5.04 µM.

What about the TGI (LOX IMVI melanoma) of the same molecule?
Its TGI is 41.7 µM.

What about the GI50 (NCI-H522 lung) of the same molecule?
Its GI50 is 1350 nM.

What about the TGI (NCI-H522 lung) of the same molecule?
The TGI was 13.8 µM.

And the GI50 (HCT-15 colon)?
Its GI50 is 4.68 µM.

What about the TGI (HCT-15 colon) of the same molecule?
The TGI was > 100 µM.

What about the GI50 (IGROV1 ovarian) of the same molecule?
Its GI50 is 36.1 µM.

What about the TGI (IGROV1 ovarian) of the same molecule?
The TGI was > 100 µM.

And the GI50 (NCI/ADR-RES ovarian)?
Its GI50 is 5.09 µM.

What about the TGI (NCI/ADR-RES ovarian) of the same molecule?
The TGI was 18.4 µM.

And the GI50 (MDA-MB-435 melanoma)?
The GI50 was > 100 µM.

What about the TGI (MDA-MB-435 melanoma) of the same molecule?
The TGI was > 100 µM.

And the GI50 (TK-10 renal)?
Its GI50 is > 100 µM.

And the TGI (TK-10 renal)?
The TGI was > 100 µM.

And the GI50 (MDA-MB-231 breast)?
The GI50 was 21.7 µM.

What about the TGI (MDA-MB-231 breast) of the same molecule?
Its TGI is > 100 µM.

What about the GI50 (COLO 205 colon) of the same molecule?
Its GI50 is 2520 nM.

And the TGI (COLO 205 colon)?
The TGI was > 100 µM.

What about the GI50 (T-47D breast) of the same molecule?
The GI50 was 2570 nM.

What about the TGI (T-47D breast) of the same molecule?
The TGI was 16.1 µM.

What about the GI50 (A549 NSCLC) of the same molecule?
The GI50 was 7.86 µM.

What about the TGI (A549 NSCLC) of the same molecule?
Its TGI is > 100 µM.

What about the GI50 (NCI-H226 lung) of the same molecule?
The GI50 was 1060 nM.

And the TGI (NCI-H226 lung)?
Its TGI is 7.68 µM.

And the GI50 (OVCAR-4 ovarian)?
Its GI50 is 19.3 µM.

And the TGI (OVCAR-4 ovarian)?
Its TGI is > 100 µM.

And the GI50 (MDA-MB-468 breast)?
Its GI50 is 1920 nM.

And the TGI (MDA-MB-468 breast)?
Its TGI is 5.88 µM.

And the GI50 (SNB-19 CNS)?
Its GI50 is 66 µM.

And the TGI (SNB-19 CNS)?
The TGI was > 100 µM.

And the GI50 (HS 578T breast)?
The GI50 was 2170 nM.

What about the TGI (HS 578T breast) of the same molecule?
The TGI was 35.7 µM.
